Data published in the supplement of paper PMC10307832.

Experiments:
Test in all cases: relative viability (nuclei count vs DMSO), 5 days (fraction); higher = more cells survive
Vorinostat + Tozasertib = compound: O=C(CCCCCCC(=O)Nc1ccccc1)NO [Vorinostat] + Cc1cc(Nc2cc(N3CCN(C)CC3)nc(Sc3ccc(NC(=O)C4CC4)cc3)n2)n[nH]1 [Tozasertib] (partner 0.1 µM)
Method in brief: (§1)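 After 5 days of treatment, lung cancer cells in 1536-well plates were fixed and stained in a single step (final 0.05% Triton X-100, 1% formaldehyde, 1 ug/ml Hoechst) and their nuclei counted on 4× images. Treatment had been applied by pin tool the day after seeding as one drug alone or as a fixed anchor-drug dose with five library-drug doses (not always all listed) in √10 steps. Relative viability is the nuclei count of treated wells divided by that of vehicle wells, and values are medians of duplicate plates.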

Vorinostat + Decitabine = compound: O=C(CCCCCCC(=O)Nc1ccccc1)NO [Vorinostat] + Nc1ncn([C@H]2C[C@H](O)[C@@H](CO)O2)c(=O)n1 [Decitabine] (partner 2 µM)
Method in brief: as §1

Vorinostat + Pemetrexed = compound: O=C(CCCCCCC(=O)Nc1ccccc1)NO [Vorinostat] + Nc1nc2[nH]cc(CCc3ccc(C(=O)N[C@@H](CCC(=O)O)C(=O)O)cc3)c2c(=O)[nH]1 [Pemetrexed] (partner 0.2 µM)
Method in brief: as §1

Vorinostat + AZD7762 = compound: O=C(CCCCCCC(=O)Nc1ccccc1)NO [Vorinostat] + NC(=O)Nc1cc(-c2cccc(F)c2)sc1C(=O)N[C@H]1CCCNC1 [AZD7762] (partner 0.2 µM)
Method in brief: as §1

Vorinostat + Palbociclib = compound: O=C(CCCCCCC(=O)Nc1ccccc1)NO [Vorinostat] + CC(=O)c1c(C)c2cnc(Nc3ccc(N4CCNCC4)cn3)nc2n(C2CCCC2)c1=O [Palbociclib] (partner 0.5 µM)
Method in brief: as §1

Vorinostat + Dasatinib = compound: O=C(CCCCCCC(=O)Nc1ccccc1)NO [Vorinostat] + Cc1nc(Nc2ncc(C(=O)Nc3c(C)cccc3Cl)s2)cc(N2CCN(CCO)CC2)n1 [Dasatinib] (partner 0.075 µM)
Method in brief: as §1

Vorinostat + Trametinib = compound: O=C(CCCCCCC(=O)Nc1ccccc1)NO [Vorinostat] + CC(=O)Nc1cccc(-n2c(=O)n(C3CC3)c(=O)c3c(Nc4ccc(I)cc4F)n(C)c(=O)c(C)c32)c1 [Trametinib] (partner 0.02 µM)
Method in brief: as §1

Vorinostat + OSI-027 = compound: O=C(CCCCCCC(=O)Nc1ccccc1)NO [Vorinostat] + COc1cccc2cc(-c3nc([C@H]4CC[C@H](C(=O)O)CC4)n4ncnc(N)c34)[nH]c12 [OSI-027] (partner 0.5 µM)
Method in brief: as §1

Vorinostat + Olaparib = compound: O=C(CCCCCCC(=O)Nc1ccccc1)NO [Vorinostat] + O=C(c1cc(Cc2n[nH]c(=O)c3ccccc23)ccc1F)N1CCN(C(=O)C2CC2)CC1 [Olaparib] (partner 8 µM)
Method in brief: as §1

Vorinostat + Luminespib = compound: O=C(CCCCCCC(=O)Nc1ccccc1)NO [Vorinostat] + CCNC(=O)c1noc(-c2cc(C(C)C)c(O)cc2O)c1-c1ccc(CN2CCOCC2)cc1 [Luminespib] (partner 0.01 µM)
Method in brief: as §1

Vorinostat + Phenformin = compound: O=C(CCCCCCC(=O)Nc1ccccc1)NO [Vorinostat] + N=C(N)NC(=N)NCCc1ccccc1 [Phenformin] (partner 250 µM)
Method in brief: as §1

Vorinostat = compound: O=C(CCCCCCC(=O)Nc1ccccc1)NO [Vorinostat]
Method in brief: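 A plate was accepted only when its control CV was below 25% and the cells had doubled at least once. Viability is defined from nuclear counts as treated wells divided by vehicle wells, with the median taken across plates. That median covers lung cancer cell lines grown in 1536-well plates, dosed by pinning at five √10-spaced library-drug concentrations, and counted in MetaXpress from 4× Hoechst images after 5 days.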

## NCI-H522
Vorinostat + Tozasertib; first compound 0.253 µM
  relative viability: 0.644
Vorinostat + Tozasertib; first compound 0.8 µM
  relative viability: 0.457
Vorinostat + Tozasertib; first compound 2.53 µM
  relative viability: 0.302
Vorinostat + Tozasertib; first compound 8 µM
  relative viability: 0.141
Vorinostat + Decitabine; first compound 0.253 µM
  relative viability: 0.632
Vorinostat + Decitabine; first compound 0.8 µM
  relative viability: 0.657
Vorinostat + Decitabine; first compound 2.53 µM
  relative viability: 0.531
Vorinostat + Decitabine; first compound 8 µM
  relative viability: 0.259
Vorinostat + Pemetrexed; first compound 0.253 µM
  relative viability: 1.22
Vorinostat + Pemetrexed; first compound 0.8 µM
  relative viability: 1.05
Vorinostat + Pemetrexed; first compound 2.53 µM
  relative viability: 1.01
Vorinostat + Pemetrexed; first compound 8 µM
  relative viability: 0.262
Vorinostat + AZD7762; first compound 0.253 µM
  relative viability: 0.987
Vorinostat + AZD7762; first compound 0.8 µM
  relative viability: 1.05
Vorinostat + AZD7762; first compound 2.53 µM
  relative viability: 0.834
Vorinostat + AZD7762; first compound 8 µM
  relative viability: 0.235
Vorinostat + Palbociclib; first compound 0.253 µM
  relative viability: 1.2
Vorinostat + Palbociclib; first compound 0.8 µM
  relative viability: 0.879
Vorinostat + Palbociclib; first compound 2.53 µM
  relative viability: 0.616
Vorinostat + Palbociclib; first compound 8 µM
  relative viability: 0.252
Vorinostat + Dasatinib; first compound 0.253 µM
  relative viability: 0.895
Vorinostat + Dasatinib; first compound 0.8 µM
  relative viability: 0.99
Vorinostat + Dasatinib; first compound 2.53 µM
  relative viability: 0.344
Vorinostat + Dasatinib; first compound 8 µM
  relative viability: 0.239
Vorinostat + Trametinib; first compound 0.253 µM
  relative viability: 0.93
Vorinostat + Trametinib; first compound 0.8 µM
  relative viability: 0.706
Vorinostat + Trametinib; first compound 2.53 µM
  relative viability: 0.707
Vorinostat + Trametinib; first compound 8 µM
  relative viability: 0.263
Vorinostat + OSI-027; first compound 0.253 µM
  relative viability: 0.8
Vorinostat + OSI-027; first compound 0.8 µM
  relative viability: 0.617
Vorinostat + OSI-027; first compound 2.53 µM
  relative viability: 0.591
Vorinostat + OSI-027; first compound 8 µM
  relative viability: 0.247
Vorinostat + Olaparib; first compound 0.253 µM
  relative viability: 0.778
Vorinostat + Olaparib; first compound 0.8 µM
  relative viability: 0.654
Vorinostat + Olaparib; first compound 2.53 µM
  relative viability: 0.318
Vorinostat + Olaparib; first compound 8 µM
  relative viability: 0.168
Vorinostat + Luminespib; first compound 0.253 µM
  relative viability: 1.44
Vorinostat + Luminespib; first compound 0.8 µM
  relative viability: 0.972
Vorinostat + Luminespib; first compound 2.53 µM
  relative viability: 0.361
Vorinostat + Luminespib; first compound 8 µM
  relative viability: 0.259
Vorinostat + Phenformin; first compound 0.253 µM
  relative viability: 0.728
Vorinostat + Phenformin; first compound 0.8 µM
  relative viability: 0.593
Vorinostat + Phenformin; first compound 2.53 µM
  relative viability: 0.602
Vorinostat + Phenformin; first compound 8 µM
  relative viability: 0.252
Vorinostat; 0.253 µM
  relative viability: 1.1
Vorinostat; 0.8 µM
  relative viability: 0.869
Vorinostat; 1 µM, anchor plate
  relative viability: 0.962
Vorinostat; 2.53 µM
  relative viability: 0.768
Vorinostat; 8 µM
  relative viability: 0.299

## NCI-H1648
Vorinostat + Tozasertib; first compound 0.253 µM
  relative viability: 0.457
Vorinostat + Tozasertib; first compound 0.8 µM
  relative viability: 0.319
Vorinostat + Tozasertib; first compound 2.53 µM
  relative viability: 0.161
Vorinostat + Tozasertib; first compound 8 µM
  relative viability: 0.158
Vorinostat + Decitabine; first compound 0.253 µM
  relative viability: 0.414
Vorinostat + Decitabine; first compound 0.8 µM
  relative viability: 0.473
Vorinostat + Decitabine; first compound 2.53 µM
  relative viability: 0.215
Vorinostat + Decitabine; first compound 8 µM
  relative viability: 0.22
Vorinostat + Pemetrexed; first compound 0.253 µM
  relative viability: 0.598
Vorinostat + Pemetrexed; first compound 0.8 µM
  relative viability: 0.595
Vorinostat + Pemetrexed; first compound 2.53 µM
  relative viability: 0.428
Vorinostat + Pemetrexed; first compound 8 µM
  relative viability: 0.241
Vorinostat + AZD7762; first compound 0.253 µM
  relative viability: 0.51
Vorinostat + AZD7762; first compound 0.8 µM
  relative viability: 0.496
Vorinostat + AZD7762; first compound 2.53 µM
  relative viability: 0.331
Vorinostat + AZD7762; first compound 8 µM
  relative viability: 0.212
Vorinostat + Palbociclib; first compound 0.253 µM
  relative viability: 0.278
Vorinostat + Palbociclib; first compound 0.8 µM
  relative viability: 0.239
Vorinostat + Palbociclib; first compound 2.53 µM
  relative viability: 0.224
Vorinostat + Palbociclib; first compound 8 µM
  relative viability: 0.213
Vorinostat + Trametinib; first compound 0.253 µM
  relative viability: 0.596
Vorinostat + Trametinib; first compound 0.8 µM
  relative viability: 0.494
Vorinostat + Trametinib; first compound 2.53 µM
  relative viability: 0.191
Vorinostat + Trametinib; first compound 8 µM
  relative viability: 0.191
Vorinostat + OSI-027; first compound 0.253 µM
  relative viability: 0.252
Vorinostat + OSI-027; first compound 0.8 µM
  relative viability: 0.267
Vorinostat + OSI-027; first compound 2.53 µM
  relative viability: 0.28
Vorinostat + OSI-027; first compound 8 µM
  relative viability: 0.263
Vorinostat + Olaparib; first compound 0.253 µM
  relative viability: 1.13
Vorinostat + Olaparib; first compound 0.8 µM
  relative viability: 0.674
Vorinostat + Olaparib; first compound 2.53 µM
  relative viability: 0.212
Vorinostat + Olaparib; first compound 8 µM
  relative viability: 0.201
Vorinostat; 0.253 µM
  relative viability: 0.815
Vorinostat; 0.8 µM
  relative viability: 0.725
Vorinostat; 1 µM, anchor plate
  relative viability: 0.596
Vorinostat; 2.53 µM
  relative viability: 0.252
Vorinostat; 8 µM
  relative viability: 0.209
